# Measured values reported in patent publication US9085593B2, “Therapeutic agent for arthrosis” (SANSHO CO., LTD., priority 2011, dated 2015).
# Values joined by “and” are separate entries in the source; they are usually repeats but may differ in a detail not shown here. Equal values may be shown once.
# Tested on: osteoarthritis in rabbit knee
# Test: Histopathological evaluation of femur and tibia condyles, rabbit knee osteoarthritis model
# Assay type: in vivo, rabbits (Kbs:NZW)
# Parameters: key to Fibrillation and/or fissure / Lowered proteoglycan stainability / Disorganization of chondrocytes / Loss of chondrocytes / Exposure of subchondral bone / Cluster formation / Histopathological score / Loss of superficial layer / Cartilage erosion: 0: None; 1: slight; 2: mild; 3: moderate; 4: severe; key to Disorganization of chondrocytes, Mean / Loss of chondrocytes, Mean / Exposure of subchondral bone, Mean / Cluster formation, Mean / Cartilage erosion, Mean: grade 0 to +4 per item; key to Histopathological score, Mean: sum of 8 items each graded 0 to +4
# Settings: for Cluster formation / Disorganization of chondrocytes / Exposure of subchondral bone / Fibrillation and/or fissure / Loss of chondrocytes / Lowered proteoglycan stainability / Cartilage erosion / Loss of superficial layer / Histopathological score / Cartilage erosion, Mean / Cluster formation, Mean / Disorganization of chondrocytes, Mean / Exposure of subchondral bone, Mean / Fibrillation and/or fissure, Mean / Loss of chondrocytes, Mean / Loss of superficial layer, Mean / Lowered proteoglycan stainability, Mean / Histopathological score, Mean: day 42; for Cluster formation / Disorganization of chondrocytes / Exposure of subchondral bone / Fibrillation and/or fissure / Loss of chondrocytes / Lowered proteoglycan stainability / Cartilage erosion / Loss of superficial layer / Histopathological score: individual animals 201-206; for Cluster formation / Disorganization of chondrocytes / Exposure of subchondral bone / Fibrillation and/or fissure / Loss of chondrocytes / Lowered proteoglycan stainability / Cartilage erosion / Loss of superficial layer: grade 0-4; for Histopathological score: sum of all items; for Cartilage erosion, Mean / Cluster formation, Mean / Disorganization of chondrocytes, Mean / Exposure of subchondral bone, Mean / Fibrillation and/or fissure, Mean / Loss of chondrocytes, Mean / Loss of superficial layer, Mean / Lowered proteoglycan stainability, Mean / Histopathological score, Mean: group mean n=6
# Procedure: Twelve 11- to 12-week-old male rabbits (Kbs:NZW) were used. Rabbits were reared in separate cages (one rabbit per cage) at 14.4° C. to 24.9° C. under light (12 hours from 7:00 am to 7:00 pm) with continuous ventilation. Rabbits were allowed to eat 150 g of feed (CR-3, CLEA Japan, Inc.) per day and to drink tap water.
# (9Z)-9-Octadecenoic acid-(2-hydroxy-2-oxide-1,2-oxaphospholan-4-yl)methyl ester sodium salt (C18:1-cPA; hereafter, referred to as “ScPA”) was used.
# Hair in the vicinity of the knee joint of the right hind limb of a rabbit was shaved using electrical clippers under deep anesthesia, and the shaved area was disinfected with Isodine. The outer coat on the medial aspect of the right hind limb was incised with a surgical knife, the boundary between the medial aspect and the articular capsule of the patellofemoral ligament was further incised, and the medial patellofemoral ligament was then dissected. Thereafter, the articular capsule was spread wide open to expose the medial meniscus, which was then completely removed. Following the removal of the meniscus, tissue and epidermis in the vicinity of the articular capsule were sutured. At the time of suturing, the site of operation was washed with physiological saline (titer: 500 mg/20 ml) containing antibiotics (Viccillin, Meiji Seika Pharma Co., Ltd.).
# After the model animals were prepared, they were divided into two groups each consisting of 6 individuals while averaging body […] (i.e., the vehicle administered group of Animal Numbers 101 to 106 and the test substance (ScPA) administered group of Animal Numbers 201 to 206).
# The test compound and the vehicle were administered in the manner described below. • Route of administration: into the joint cavity • Site of administration: right hind limb (treated limb) • Timing of administration: on days 7, 11, 14, 18, 21, 25, 28, 32, 35, and 39 • Dosage: Test compound: 10 μg/rabbit (volume: 0.2 ml) • Vehicle: 0.2 ml/rabbit • Means of administration: with the use of a 1.0-ml syringe (Terumo Corporation) and a 27 G injection needle (Terumo Corporation) (1-5) Pain Assessment (Weight Distribution Across both Hind Limbs) Frequency of Measurement:
# Four limbs were dissected from the animals under deep anesthesia, causing them to bleed to death. Thereafter, the femur condyle and the tibial condyle were removed from the knee joint of the treated limb (the right hind limb), followed by fixation in a 10% neutral buffered formalin solution.
# The femur and the tibia that had been soaked and fixed in a 10% neutral buffered formalin solution were subjected to demineralization with EDTA. After the completion of demineralization, the colored sites identified below were embedded in paraffin in accordance with a conventional technique, and the resultant was sliced to a thickness of 4 μm each. The slices were subjected to hematoxylin-eosin (HE) staining and safranin O (proteoglycan) staining and histopathologically examined under an optical microscope (BX51TF; OLYMPUS). The degree of cartilage degeneration of the pathological specimens was evaluated in accordance with the criteria shown in Table 1 below (Kikuchi, T, Yoneda, H. et al., Osteoarthritis cartilage, 4; p. 99 and continuing pages, 1996). Specifically, the specimens were evaluated in terms of loss of the following 8 items according to a five-grade evaluation (0 to +4): superficial layer; cartilage erosion; fibrillation and/or fissure; lowered proteoglycan stainability (safranin O stainability); disorganization of chondrocytes; loss of chondrocytes; exposure of subchondral bone; and cluster formation. The sum total score of all items was defined as the overall score. Observation items without specific criteria defined in Table 1 were evaluated in accordance with the criteria shown in Table 2 below (Naoki Ishiguro et al., Journal of Surgery, 29: p. 112 and continuing pages, 2010).
# [1] = lateral condyle of femur, listed as Test substance, sodium salt
# [2] = lateral condyle of tibia, listed as Test substance, sodium salt
# [3] = medial condyle of femur, listed as Test substance, sodium salt
# [4] = medial condyle of the femur, of 6 samples
# [5] = medial condyle of the tibia, of 6 samples
# [6] = medial condyle of tibia, listed as Test substance, sodium salt
structure (smiles),measurement,setting,value
"CCCCCCCC/C=C\CCCCCCCC(=O)OCC1COP(=O)([O-])C1.[Na+] (stereo not shown) [ScPA, (9Z)-9-Octadecenoic acid-(2-hydroxy-2-oxide-1,2-oxaphospholan-4-yl)methyl ester sodium salt]",cartilage erosion in histopathological image (FIG. 12 B),"Animal No. 201, medial aspect of the right femur, HE staining",slight
same,joint cartilage change in histopathological image (FIG. 12 D),"Animal No. 201, medial aspect of the right femur, SO staining",no change
same,Cluster formation,lateral condyle of femur,0
same,Disorganization of chondrocytes,lateral condyle of femur,0
same,Exposure of subchondral bone,lateral condyle of femur,0
same,Fibrillation and/or fissure,lateral condyle of femur,0
same,Loss of chondrocytes,lateral condyle of femur,0
same,Lowered proteoglycan stainability,lateral condyle of femur,0
same,Cartilage erosion,[1],0 (4×) and 1 (2×)
same,Loss of superficial layer,[1],0 (4×) and 1 (2×)
same,Histopathological score,[1],0 (4×) and 2 (2×)
same,Cartilage erosion,lateral condyle of tibia,0
same,Cluster formation,lateral condyle of tibia,0
same,Disorganization of chondrocytes,lateral condyle of tibia,0
same,Exposure of subchondral bone,lateral condyle of tibia,0
same,Fibrillation and/or fissure,lateral condyle of tibia,0
same,Loss of chondrocytes,lateral condyle of tibia,0
same,Loss of superficial layer,lateral condyle of tibia,0
same,Lowered proteoglycan stainability,[2],0 (3×) and 1 (3×)
same,Histopathological score,[2],0 (3×) and 1 (3×)
same,damages resulting from the preparation of osteoarthritis models,lateral condyles of the femur and of the tibia,substantially no damages
same,"Cartilage erosion, Mean",medial condyle of femur,1.17
same,"Cluster formation, Mean",medial condyle of femur,2.17
same,"Disorganization of chondrocytes, Mean",medial condyle of femur,0.83
same,"Exposure of subchondral bone, Mean",medial condyle of femur,0.33
same,"Fibrillation and/or fissure, Mean",medial condyle of femur,0.67
same,"Loss of chondrocytes, Mean",medial condyle of femur,0.83
same,"Loss of superficial layer, Mean",medial condyle of femur,1.17
same,"Lowered proteoglycan stainability, Mean",medial condyle of femur,1.17
same,"Histopathological score, Mean","medial condyle of femur, p=0.0649 vs vehicle, listed as Test substance, sodium salt",8.33
same,"Histopathological score, Mean","medial condyle of femur, p=0.0649 vs vehicle, listed as test substance, sodium salt",8.33±2.51
same,Cartilage erosion,[3],1 (4×) and 0 and 3
same,Cluster formation,[3],2 (4×) and 4 and 1
same,Disorganization of chondrocytes,[3],0 and 1 (5×)
same,Exposure of subchondral bone,[3],0 (5×) and 2
same,Fibrillation and/or fissure,[3],1 and 0 (4×) and 3
same,Loss of chondrocytes,[3],0 (3×) and 1 (2×) and 3
same,Loss of superficial layer,[3],1 (4×) and 0 and 3
same,Lowered proteoglycan stainability,[3],1 (2×) and 2 and 0 (2×) and 3
same,Histopathological score,[3],6 (2×) and 10 and 3 and 20 and 5
same,Histopathological score,"medial condyle of femur, listed as test substance, sodium salt",6 (2×) and 5 and 10 and 3 and 20
same,samples in which cartilage erosion was observed,[4],5
same,samples in which cluster formation was observed,[4],6
same,samples in which disorganization of chondrocytes was observed,[4],5
same,samples in which loss of cartilage superficial layer was observed,[4],5
same,samples with changes lesser than those observed in the vehicle administered group,[4],4
same,histopathological scores compared with the vehicle administered group,"medial condyle of the femur, p=0.0649",lower than those of the vehicle administered group
same,samples in which cartilage fibrillation and/or fissure was observed,[5],6
same,samples in which loss of cartilage superficial layer was observed,[5],5
same,samples in which lowered proteoglycan stainability was observed,[5],5
same,"Cartilage erosion, Mean",medial condyle of tibia,1.17
same,"Cluster formation, Mean",medial condyle of tibia,1.50
same,"Disorganization of chondrocytes, Mean",medial condyle of tibia,1.33
same,"Exposure of subchondral bone, Mean",medial condyle of tibia,0.50
same,"Fibrillation and/or fissure, Mean",medial condyle of tibia,1.50
same,"Loss of chondrocytes, Mean",medial condyle of tibia,0.67
same,"Loss of superficial layer, Mean",medial condyle of tibia,2.00
same,"Lowered proteoglycan stainability, Mean",medial condyle of tibia,1.83
same,"Histopathological score, Mean","medial condyle of tibia, p=0.6991 vs vehicle, listed as Test substance, sodium salt",10.50
same,"Histopathological score, Mean","medial condyle of tibia, p=0.6991 vs vehicle, listed as test substance, sodium salt",10.50±3.91
same,Cartilage erosion,[6],2 and 1 (2×) and 0 (2×) and 3
same,Cluster formation,[6],4 and 1 (2×) and 0 (2×) and 3
same,Disorganization of chondrocytes,[6],2 and 1 (2×) and 0 (2×) and 4
same,Exposure of subchondral bone,[6],0 (5×) and 3
same,Fibrillation and/or fissure,[6],1 (4×) and 3 and 2
same,Loss of chondrocytes,[6],0 (4×) and 3 and 1
same,Loss of superficial layer,[6],3 (2×) and 1 (2×) and 0 and 4
same,Lowered proteoglycan stainability,[6],4 (2×) and 1 (3×) and 0
same,Histopathological score,[6],16 and 6 and 1 and 27 and 9 and 4
same,Histopathological score,"medial condyle of tibia, listed as test substance, sodium salt",4 and 16 and 6 and 1 and 27 and 9
